Assay results published in PMC7865522, “Analyzing Kinase Similarity in Small Molecule and Protein Structural Space to Explore the Limits of Multi-Target Screening” (Molecules, 2021).

How the values were obtained:
BRAF [1] = biological target: T1, BRAF (Homo sapiens, UniProt P15056); test: DiscoverX KINOMEscan competition binding assay; conditions: compound 10 µM; lower values = higher affinity; below 35% = significant binding
T1 construct: purchased DiscoverX (KINOMEscan service); host or cells: E. coli BL21-derived host (T7 phage) or HEK-293
Protocol: (§1) Ligand binding experiments for the molecules selected from Profiles 1 and 2 towards nine kinases (EGFR, ErbB2, LCK, CDK2, BRAF, MET, p38α, PI3K and VEGFR2) and for molecules selected from Profiles 3 and 4 towards four kinases (EGFR, ErbB2, BRAF and VEGFR2) were carried out by DiscoverX using the supplied protocol as described in the Supplementary Materials. Briefly, ligand affinity was measured by competition with a resin-bound standard ligand and washed-off kinase concentration was determined via qPCR.
(§2) Summarizing, binding of a compound to a kinase was tested in comparison to a control compound (see Table S2). […]
(§3) 1.1. DiscoverX kinase assay
(§4) For most assays, kinase-tagged T7 phage strains were grown in parallel in 24-well blocks in an E.coli host derived from the BL21 strain. E.coli were grown to log-phase and infected with T7 phage from a frozen stock (multiplicity of infection = 0.4) and incubated with shaking at 32°C until lysis (90-150 minutes). The lysates were centrifuged (6,000 x g) and ﬁltered (0.2µm) to remove cell debris.
(§5) The remaining kinases were produced in HEK-293 cells and subsequently tagged with DNA for qPCR detection. Streptavidin-coated magnetic beads were treated with biotinylated small molecule ligands for 30 minutes at room temperature to generate afﬁnity resins for the kinases. The liganded beads were blocked with excess biotin and washed with blocking buffer (SeaBlock [Pierce], 1% BSA, 0.05% Tween 20, 1 mM DTT) to remove unbound ligands and to reduce non-speciﬁc phage binding. Binding reactions were assembled by combining kinases, liganded afﬁnity beads, and test compounds in 1x binding buffer (20% SeaBlock, 0.17x PBS, 0.05% Tween 20, 6 mM DTT). Test compounds were prepared as 40x stocks in 100% DMSO and directly diluted into the assay. All reactions were performed in polypropylene 384-well plates in a ﬁnal volume of 0.02 ml. The assay plates were incubated at room temperature with shaking for 1 hour and the afﬁnity beads were washed with wash buffer (1x PBS, 0.05% Tween 20). The beads were then re-suspended in elution buffer (1x PBS, 0.05% Tween 20, 0.5 µM non-biotinylated afﬁnity ligand) and incubated at room temperature with shaking for 30 minutes. The kinase concentration in the eluates was measured by qPCR. […]
(§6) Table S2. Experimental % control values from the DiscoverX kinase assay. Compounds were tested against the nine kinases EGFR, ErbB2, LCK, CDK2, BRAF, MET, p38α, PI3K and VEGFR2, unless otherwise stated. Binding of kinase and compound were tested at a compound concentration of 10 µM and in comparison to a control compound. Lower values indicate a higher afﬁnity of the compound to the protein and values below 35% indicate signiﬁcant binding according to information of the CRO. […]
(§7) a Compounds were only tested against four kinases (EGFR, ErbB2, BRAF and VEGFR2). b Compound was selected independently from two docking proﬁles and tested separately during

CDK2 = biological target: T2, CDK2 (Homo sapiens, UniProt P24941); test: DiscoverX KINOMEscan competition binding assay; conditions: compound 10 µM; lower values = higher affinity; below 35% = significant binding
T2 construct: purchased DiscoverX (KINOMEscan service); host or cells: E. coli BL21-derived host (T7 phage) or HEK-293
Protocol: as §1, §2, §3, §4, §5, §6, §7

EGFR [2] = biological target: T3, EGFR (Homo sapiens, UniProt P00533); test: DiscoverX KINOMEscan competition binding assay; conditions: compound 10 µM; lower values = higher affinity; below 35% = significant binding
T3 construct: purchased DiscoverX (KINOMEscan service); host or cells: E. coli BL21-derived host (T7 phage) or HEK-293
Protocol: as §1, §2, §3, §4, §5, §6, §7

ErbB2 [3] = biological target: T4, ErbB2 (Homo sapiens, UniProt P04626); test: DiscoverX KINOMEscan competition binding assay; conditions: compound 10 µM; lower values = higher affinity; below 35% = significant binding
T4 construct: purchased DiscoverX (KINOMEscan service); host or cells: E. coli BL21-derived host (T7 phage) or HEK-293
Protocol: as §1, §2, §3, §4, §5, §6, §7

LCK = biological target: T5, LCK (Homo sapiens, UniProt P06239); test: DiscoverX KINOMEscan competition binding assay; conditions: compound 10 µM; lower values = higher affinity; below 35% = significant binding
T5 construct: purchased DiscoverX (KINOMEscan service); host or cells: E. coli BL21-derived host (T7 phage) or HEK-293
Protocol: as §1, §2, §3, §4, §5, §6, §7

MET = biological target: T6, MET (Homo sapiens, UniProt P08581); test: DiscoverX KINOMEscan competition binding assay; conditions: compound 10 µM; lower values = higher affinity; below 35% = significant binding
T6 construct: purchased DiscoverX (KINOMEscan service); host or cells: E. coli BL21-derived host (T7 phage) or HEK-293
Protocol: as §1, §2, §3, §4, §5, §6, §7

VEGFR2 = biological target: T7, VEGFR2 (Homo sapiens, UniProt P35968); test: DiscoverX KINOMEscan competition binding assay; conditions: compound 10 µM; lower values = higher affinity; below 35% = significant binding
T7 construct: purchased DiscoverX (KINOMEscan service); host or cells: E. coli BL21-derived host (T7 phage) or HEK-293
Protocol: as §1, §2, §3, §4, §5, §6, §7

p38α = biological target: T8, p38α (Homo sapiens, UniProt Q16539); test: DiscoverX KINOMEscan competition binding assay; conditions: compound 10 µM; lower values = higher affinity; below 35% = significant binding
T8 construct: purchased DiscoverX (KINOMEscan service); host or cells: E. coli BL21-derived host (T7 phage) or HEK-293
Protocol: as §1, §2, §3, §4, §5, §6, §7

BRAF [4] = biological target: T1, BRAF; test: Eurofins in vitro kinase inhibition assay; type: biochemical; conditions: compound 20 µM; mean (SD); above 50% significant, 25-50% weak
Protocol: (§8) Kinase inhibition assays for EGFR, ErbB2, PI3K and BRAF were carried out by Eurofins Cerep following the protocols of Weber et al. (EGFR), Quian et al. (ErbB2), Sinnamon et al. (PI3K) and Kupcho et al. (BRAF). Briefly, except for PI3K, compounds were incubated with the respective kinase, ATP, and a substrate analog, and the effect of each compound on phosphorylation was measured. In the case of PI3K, the displacement of biotinylated PIP3 from a PIP3-binding complex by unlabelled PIP3 (produced from PIP2 by PI3K) was measured by Homogeneous Time Resolved Fluorescence (HTRF).
(§9) Finally, inhibition of the respective kinases is calculated as the percentage inhibition of control activity.
(§10) Table S3. Experimental results from the Euroﬁns assay. Inhibition of four kinases (EGFR, PI3K, ErbB2, BRAF) was measured at compound concentrations of 20 µM. Inhibition was calculated as % inhibition of control activity. According to CRO, values above 50% inhibition represent signiﬁcant inhibition, values above 25% weak inhibition effect and values below 25% as well as negative values are usually not signiﬁcant. Results are reported in mean (SD) format. […]
(§11) a Compound interfered with assay readout.

EGFR [5] = biological target: T3, EGFR; test: Eurofins in vitro kinase inhibition assay; type: biochemical; conditions: compound 20 µM; mean (SD); above 50% significant, 25-50% weak
Protocol: as §8, §9, §10, §11

ErbB2 [6] = biological target: T4, ErbB2; test: Eurofins in vitro kinase inhibition assay; type: biochemical; conditions: compound 20 µM; mean (SD); above 50% significant, 25-50% weak
Protocol: as §8, §9, §10, §11

PI3K [7] = biological target: T9, PI3K (Homo sapiens, UniProt P42336); test: Eurofins in vitro kinase inhibition assay (HTRF, PIP3 displacement); type: biochemical; design: purchased Eurofins Cerep (contract assay); conditions: compound 20 µM; mean (SD); above 50% significant, 25-50% weak
Protocol: as §8, §9, §10, §11
Target sequence in this assay (P42336 whole entry): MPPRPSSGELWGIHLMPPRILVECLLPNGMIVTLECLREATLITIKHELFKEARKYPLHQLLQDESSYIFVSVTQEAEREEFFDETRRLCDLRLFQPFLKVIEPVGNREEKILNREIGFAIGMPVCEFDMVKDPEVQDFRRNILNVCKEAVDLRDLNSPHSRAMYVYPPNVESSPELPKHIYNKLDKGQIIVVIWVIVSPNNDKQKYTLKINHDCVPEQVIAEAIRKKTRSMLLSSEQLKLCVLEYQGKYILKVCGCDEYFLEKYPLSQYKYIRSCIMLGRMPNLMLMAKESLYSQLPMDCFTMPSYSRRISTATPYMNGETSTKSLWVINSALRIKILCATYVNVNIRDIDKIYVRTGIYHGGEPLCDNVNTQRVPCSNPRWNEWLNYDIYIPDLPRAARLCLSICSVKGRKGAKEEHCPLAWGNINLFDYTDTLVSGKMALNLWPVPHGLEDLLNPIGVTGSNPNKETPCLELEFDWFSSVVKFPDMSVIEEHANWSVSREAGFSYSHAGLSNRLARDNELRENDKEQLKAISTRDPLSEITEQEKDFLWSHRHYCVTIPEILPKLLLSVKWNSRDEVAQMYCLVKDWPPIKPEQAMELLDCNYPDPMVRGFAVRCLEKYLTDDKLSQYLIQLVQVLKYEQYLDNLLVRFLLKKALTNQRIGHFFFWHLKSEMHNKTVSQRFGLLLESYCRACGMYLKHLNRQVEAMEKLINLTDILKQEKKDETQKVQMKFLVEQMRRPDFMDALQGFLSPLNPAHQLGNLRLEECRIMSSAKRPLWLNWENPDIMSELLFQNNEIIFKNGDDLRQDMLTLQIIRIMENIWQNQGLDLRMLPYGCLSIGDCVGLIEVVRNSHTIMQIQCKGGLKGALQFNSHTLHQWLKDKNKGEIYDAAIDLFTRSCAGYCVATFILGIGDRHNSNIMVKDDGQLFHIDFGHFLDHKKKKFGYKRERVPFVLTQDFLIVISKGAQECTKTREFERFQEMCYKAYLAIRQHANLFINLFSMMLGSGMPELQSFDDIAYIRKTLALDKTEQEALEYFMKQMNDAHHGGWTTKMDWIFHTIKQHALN
Target sequence in this assay (P27986 whole entry partner): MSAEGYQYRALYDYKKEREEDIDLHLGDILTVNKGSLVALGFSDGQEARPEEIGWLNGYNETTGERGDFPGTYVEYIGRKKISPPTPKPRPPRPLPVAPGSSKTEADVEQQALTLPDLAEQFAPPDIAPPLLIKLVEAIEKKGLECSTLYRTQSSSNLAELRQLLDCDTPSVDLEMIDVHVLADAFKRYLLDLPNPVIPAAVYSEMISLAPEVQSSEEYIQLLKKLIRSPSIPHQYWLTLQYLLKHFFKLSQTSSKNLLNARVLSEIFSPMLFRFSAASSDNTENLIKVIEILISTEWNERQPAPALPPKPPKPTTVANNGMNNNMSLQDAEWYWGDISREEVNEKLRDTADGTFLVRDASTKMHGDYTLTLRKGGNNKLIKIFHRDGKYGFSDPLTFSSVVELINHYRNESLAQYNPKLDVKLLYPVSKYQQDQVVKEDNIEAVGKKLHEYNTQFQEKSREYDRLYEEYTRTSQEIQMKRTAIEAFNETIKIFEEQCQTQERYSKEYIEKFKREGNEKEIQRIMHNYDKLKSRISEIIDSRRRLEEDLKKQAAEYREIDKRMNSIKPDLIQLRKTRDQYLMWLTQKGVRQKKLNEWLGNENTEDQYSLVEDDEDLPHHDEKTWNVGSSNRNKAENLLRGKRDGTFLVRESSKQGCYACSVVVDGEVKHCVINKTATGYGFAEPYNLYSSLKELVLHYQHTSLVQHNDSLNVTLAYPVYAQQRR

PI3K [8] = biological target: T9, PI3K; test: DiscoverX KINOMEscan competition binding assay; design: purchased DiscoverX (KINOMEscan service); host or cells: E. coli BL21-derived host (T7 phage) or HEK-293; conditions: compound 10 µM; lower values = higher affinity; below 35% = significant binding
Protocol: as §1, §2, §3, §4, §5, §6, §7
Target sequence in this assay (P42336 whole entry): as the sequence (P42336 whole entry) above

T1 sequence (P15056 whole entry): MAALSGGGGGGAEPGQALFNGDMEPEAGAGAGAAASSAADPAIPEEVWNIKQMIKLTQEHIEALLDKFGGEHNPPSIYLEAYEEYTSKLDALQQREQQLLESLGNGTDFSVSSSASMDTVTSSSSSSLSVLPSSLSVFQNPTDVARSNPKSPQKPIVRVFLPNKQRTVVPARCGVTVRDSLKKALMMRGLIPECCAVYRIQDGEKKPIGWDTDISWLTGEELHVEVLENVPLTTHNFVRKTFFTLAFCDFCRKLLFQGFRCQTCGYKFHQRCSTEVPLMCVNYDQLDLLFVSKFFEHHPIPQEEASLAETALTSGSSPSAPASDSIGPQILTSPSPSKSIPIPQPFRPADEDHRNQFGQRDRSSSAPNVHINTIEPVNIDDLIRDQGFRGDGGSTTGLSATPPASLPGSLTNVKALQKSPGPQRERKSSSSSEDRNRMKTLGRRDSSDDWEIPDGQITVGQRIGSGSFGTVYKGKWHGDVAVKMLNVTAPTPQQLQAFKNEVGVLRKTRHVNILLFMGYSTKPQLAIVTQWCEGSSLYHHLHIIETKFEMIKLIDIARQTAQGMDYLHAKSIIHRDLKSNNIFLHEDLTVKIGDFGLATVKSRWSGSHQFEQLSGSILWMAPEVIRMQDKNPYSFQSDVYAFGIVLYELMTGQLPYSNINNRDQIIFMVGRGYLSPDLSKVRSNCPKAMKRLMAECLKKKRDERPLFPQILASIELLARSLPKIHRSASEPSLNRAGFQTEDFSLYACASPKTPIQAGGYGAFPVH
T6 sequence (P08581 25-1390): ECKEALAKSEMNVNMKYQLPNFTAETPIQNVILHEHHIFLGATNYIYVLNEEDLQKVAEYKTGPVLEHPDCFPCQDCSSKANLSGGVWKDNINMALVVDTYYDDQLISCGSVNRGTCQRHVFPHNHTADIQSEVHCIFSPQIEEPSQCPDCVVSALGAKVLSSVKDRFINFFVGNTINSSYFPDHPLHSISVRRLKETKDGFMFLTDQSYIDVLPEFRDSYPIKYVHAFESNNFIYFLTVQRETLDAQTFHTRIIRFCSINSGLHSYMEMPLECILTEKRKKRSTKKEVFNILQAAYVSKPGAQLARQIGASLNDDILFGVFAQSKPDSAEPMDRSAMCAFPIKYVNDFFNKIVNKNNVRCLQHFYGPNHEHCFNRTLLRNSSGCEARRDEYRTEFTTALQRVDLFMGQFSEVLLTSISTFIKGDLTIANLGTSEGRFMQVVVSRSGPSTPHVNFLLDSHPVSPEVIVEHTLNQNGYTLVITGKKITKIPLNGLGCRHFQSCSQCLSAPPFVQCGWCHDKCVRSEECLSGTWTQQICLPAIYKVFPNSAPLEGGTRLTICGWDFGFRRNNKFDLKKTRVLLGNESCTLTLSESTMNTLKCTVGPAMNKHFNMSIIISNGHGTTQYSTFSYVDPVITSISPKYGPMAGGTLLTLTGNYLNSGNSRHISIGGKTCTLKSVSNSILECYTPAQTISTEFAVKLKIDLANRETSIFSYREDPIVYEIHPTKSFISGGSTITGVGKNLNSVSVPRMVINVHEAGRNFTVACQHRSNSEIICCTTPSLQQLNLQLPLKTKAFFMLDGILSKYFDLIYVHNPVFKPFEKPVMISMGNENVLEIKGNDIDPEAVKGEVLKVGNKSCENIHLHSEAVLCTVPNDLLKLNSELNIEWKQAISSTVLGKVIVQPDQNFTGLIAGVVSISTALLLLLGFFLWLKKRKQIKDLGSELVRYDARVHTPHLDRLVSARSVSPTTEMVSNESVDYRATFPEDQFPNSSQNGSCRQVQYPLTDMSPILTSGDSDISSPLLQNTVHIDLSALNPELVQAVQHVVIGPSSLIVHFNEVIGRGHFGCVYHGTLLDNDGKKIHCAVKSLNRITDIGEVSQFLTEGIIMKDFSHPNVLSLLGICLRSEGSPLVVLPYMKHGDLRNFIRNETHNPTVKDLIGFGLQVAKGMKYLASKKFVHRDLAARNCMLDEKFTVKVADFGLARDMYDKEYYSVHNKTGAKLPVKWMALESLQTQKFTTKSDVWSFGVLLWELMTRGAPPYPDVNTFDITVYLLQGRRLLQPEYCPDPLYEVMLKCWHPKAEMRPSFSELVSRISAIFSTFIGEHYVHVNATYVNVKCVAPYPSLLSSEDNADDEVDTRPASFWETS
T8 sequence (Q16539 whole entry): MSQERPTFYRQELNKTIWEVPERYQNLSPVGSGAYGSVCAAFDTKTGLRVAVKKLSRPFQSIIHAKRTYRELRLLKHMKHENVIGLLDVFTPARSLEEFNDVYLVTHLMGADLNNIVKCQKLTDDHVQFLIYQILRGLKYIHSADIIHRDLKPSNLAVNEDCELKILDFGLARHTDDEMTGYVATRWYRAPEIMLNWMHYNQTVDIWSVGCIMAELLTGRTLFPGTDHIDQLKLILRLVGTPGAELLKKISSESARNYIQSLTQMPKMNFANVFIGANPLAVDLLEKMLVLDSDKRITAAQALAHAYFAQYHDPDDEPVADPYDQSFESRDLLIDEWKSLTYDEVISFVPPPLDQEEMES
T5 sequence (P06239 whole entry): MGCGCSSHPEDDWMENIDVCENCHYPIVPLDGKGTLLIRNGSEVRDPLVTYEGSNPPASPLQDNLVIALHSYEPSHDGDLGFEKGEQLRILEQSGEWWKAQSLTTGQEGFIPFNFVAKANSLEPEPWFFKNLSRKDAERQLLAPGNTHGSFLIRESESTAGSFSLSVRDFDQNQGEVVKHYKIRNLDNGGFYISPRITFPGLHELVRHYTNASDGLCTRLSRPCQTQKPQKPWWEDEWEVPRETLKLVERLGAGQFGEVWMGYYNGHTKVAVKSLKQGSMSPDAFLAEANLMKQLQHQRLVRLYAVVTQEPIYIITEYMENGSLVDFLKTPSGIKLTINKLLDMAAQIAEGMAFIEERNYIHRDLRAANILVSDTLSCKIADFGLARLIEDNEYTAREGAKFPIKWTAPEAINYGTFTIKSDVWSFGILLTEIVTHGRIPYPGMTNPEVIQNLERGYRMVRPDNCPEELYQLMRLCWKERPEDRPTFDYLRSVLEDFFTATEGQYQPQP

SMILES	% control, BRAF (DiscoverX) (BRAF [1])	% control, CDK2 (DiscoverX) (CDK2)	% control, EGFR (DiscoverX) (EGFR [2])	% control, ErbB2 (DiscoverX) (ErbB2 [3])	% control, LCK (DiscoverX) (LCK)	% control, MET (DiscoverX) (MET)	% control, VEGFR2 (DiscoverX) (VEGFR2)	% control, p38α (DiscoverX) (p38α)	% inhibition of control activity, BRAF (Eurofins) (BRAF [4])	% inhibition of control activity, EGFR (Eurofins) (EGFR [5])	% inhibition of control activity, ErbB2 (Eurofins) (ErbB2 [6])	% inhibition of control activity, PI3K (Eurofins) (PI3K [7])	% control, PI3K (DiscoverX) (PI3K [8])
Cc1[nH]c2nc3c(c(=O)n(Cc4ccccc4)c(=O)n3C)n2c1C [DS62156]	95 % control	100 % control	90 % control	96 % control	100 % control	87 % control	100 % control	97 % control	-6.3 (1.6) % inhibition	16.6 (0.4) % inhibition	3.1 (3.3) % inhibition	1.5 (5.8) % inhibition	66 % control
O=C(NCC1CC1)Nc1ccc(N2CCOC2=O)cc1 [DS75739]	100 % control	100 % control	100 % control	94 % control	100 % control	85 % control	100 % control	87 % control	-11.1 (4.9) % inhibition	4.3 (6.9) % inhibition	-0.6 (1.1) % inhibition	1.7 (0.8) % inhibition	100 % control
Cc1ccc(-n2cnnn2)cc1NC(=O)NC1CC1 [DS44245]	99 % control	100 % control	100 % control	100 % control	100 % control	90 % control	98 % control	100 % control	-13.7 (10.5) % inhibition	2.4 (14.7) % inhibition	-3.4 (1.0) % inhibition	1.8 (4.4) % inhibition	100 % control

The next lines start with the values.

% control, BRAF (DiscoverX) (BRAF [1])	% control, CDK2 (DiscoverX) (CDK2)	% control, EGFR (DiscoverX) (EGFR [2])	% control, ErbB2 (DiscoverX) (ErbB2 [3])	% control, LCK (DiscoverX) (LCK)	% control, MET (DiscoverX) (MET)	% control, VEGFR2 (DiscoverX) (VEGFR2)	% control, p38α (DiscoverX) (p38α)	% inhibition of control activity, BRAF (Eurofins) (BRAF [4])	% inhibition of control activity, EGFR (Eurofins) (EGFR [5])	% inhibition of control activity, ErbB2 (Eurofins) (ErbB2 [6])	% inhibition of control activity, PI3K (Eurofins) (PI3K [7])	% control, PI3K (DiscoverX) (PI3K [8])	SMILES
100 % control	100 % control	100 % control	96 % control	100 % control	92 % control	100 % control	100 % control	-18.7 (11.9) % inhibition	14.5 (8.6) % inhibition	-2.5 (1.6) % inhibition	4.6 (7.7) % inhibition	100 % control	COCCCNC(=O)c1nc2c3c4c(sc3ncn2n1)CCC[C@H]4C [DS66846]
100 % control	100 % control	96 % control	87 % control	100 % control	78 % control	99 % control	100 % control	-12.4 (1.8) % inhibition	19.8 (5.0) % inhibition	9.8 (21.9) % inhibition	-1.1 (2.1) % inhibition	100 % control	Cc1cc(=O)n2nc(N(C)CC(=O)NCc3cccs3)sc2n1 [DS72975]
100 % control	100 % control	97 % control	100 % control	89 % control	100 % control	97 % control	99 % control	-21.8 (9.5) % inhibition	15.3 (7.7) % inhibition	0.7 (1.1) % inhibition	-3.7 (0.3) % inhibition	100 % control	COc1ccc(-c2nn(C(C)=O)c3c2C(=O)CC(C)(C)C3)cc1 [DS18339]
